Results on three molecules are retold here after patent publication US9964534B2, “Method of making a skin care composition” (The Procter & Gamble Company, priority 2014, dated 2018).

One test deals with HMGB1. Nature of the test: HMGB1 quantitation from keratinocytes (ELISA of supernatant, normalized to total protein). It counts as cell-based. To be noted: for HMGB1 levels relative to the control: result in words. How it is done: Make a 210 mL suspension of keratinocytes at 40,000 cells/mL using suitable media to make a cell suspension. Place 2 mL of the cell suspension into the appropriate number of wells of one or more 12-well plates as needed, using the same velocity and insertion angle for each well as cells are pipetted. Incubate the 12-well plates overnight at 37° C. If the cell plating quality is poor (e.g., cells are not attached to plate or seeding density is uneven), discard and start over. Prepare a dosing media by diluting the test agent to the desired concentration (e.g., from 0.0001% to 10%) in a suitable media (e.g., the same media used to make the cell suspension). […] It is not uncommon for skin care actives to be included in skin care compositions at these levels. Optionally, include sufficient solublizer to provide 0.1% solublizer in the test sample. Add 2 mL of dosing media into each well of a 12-well plate and incubate at 4° C. overnight or until test agent is to be added to the test sample. Place prepared dosing media in the 37° C. incubator for at least 30 minutes, or until pH has equalized. When dosing media is warmed and at proper pH, dose the cells. Incubate the dosed cells at 37° C. for 6 hours. Keratinocytes (or other cells) are plated out in 12 well plates as described above with a seeding density of about […] and incubated overnight at 37° C. with 5% CO2. The keratinocytes are dosed with a dosing medium containing the test agent and the plates returned to the incubator for another 20 hours. The supernatant for each is collected and the HMGB1 level analyzed using ELISA (USCN Life Sciences) in accordance with manufacturer's instructions. The cells are lysed with Glo Lysis Buffer (Promega) and the protein levels determined using BCA kits (Pierce) per manufacturer's instructions. The values of HMGB1 determined by ELISA and normalized to total protein levels from the cells.
For orientation: ELISA stands for enzyme-linked immunosorbent assay.

In test [1] the test system is primary human melanocytes. Briefly: Melanocyte dendricity and size measurements (Incucyte ZOOM live cell imaging). Format: cell-based. The settings on record: melanocytes contacted with HMGB1, over the span of three days. The source says:
The ability of a test agent to inhibit dendricity and cell body growth in melanocytes may be determined by contacting a sample of melanocytes with the test agent, measuring the change in dendricity and/or cell body growth and comparing the measured indicator to a control to determine if the test agent is identified as a skin tone agent. In some instances, it is important for the test sample to include a source of HMGB1. For example, an amount of HMGB1 (e.g., recombinant HIS-tagged HMGB1 available from Sigma) may be included in the test sample (e.g., at a final level of 0.1 μg/mL), or the test sample may include another type of cell, which can be stimulated to produce HMGB1. A control may be obtained by measuring the dendricity and/or cell body size of the melanocytes prior to contact with the test agent, measuring the dendricity and/or cell body size of the melanocytes in a control sample and/or from the dendricity and/or cell body size of melanocytes published in scientific literature, if available.
Primary human melanocytes (ATCC) are cultured for 2 passages in T150 flasks. For dendricity experiments, melanocytes are plated into 96 well plates (clear) at a density of about 5000 cells/well. The plates are placed into an Incucyte ZOOM® live cell imaging system (Essen Bioscience, Ann Arbor, Mich.) which resides inside a 37° C., 5% CO2 incubator. […]

For hydroxycinnamic acid [HCA], the “HMGB1 levels relative to the control” value in the test on HMGB1 is “significantly reduced”. For the same molecule, the entries for the “HMGB1 (pg)/protein (ug)” value in the test with HMGB1 (test agent 0.001%), in the test with HMGB1 (test agent 0.005%) and in the test on HMGB1 (test agent 0.02%) were 29 pg/ug protein, 6 pg/ug protein and 2 pg/ug protein, respectively.
On the same counts, the results for methyl hydroxycinnamic acid [ME-HCA] are “significantly reduced”, 33 pg/ug protein, 28 pg/ug protein and 4 pg/ug protein.

B1: HMGB1: recombinant HIS-tagged HMGB1 available from Sigma; high-mobility group protein B1, SEQ ID No. 1 (protein, listed as Homo sapiens)
chain: MGKGDPKKPRGKMSSYAFFVQTCREEHKKKHPDASVNFSEFSKKCSERWKTMSAKEKGKFEDMAKADKARYEREMKTYIPPKGETKKKFKDPNAPKRPPSAFFLFCSEYRPKIKGEHPGLSIGDVAKKLGEMWNNTAADDKQPYEKKAAKLKEKYEKDIAAYRAKGKPDAAKKGVVKAEKSKKKKEEEEDEEDEEDEEEEEDEEDEDEEEDDDDE
modifications: His tag
On to B1, for which, in test [1], the “cell body size of melanocytes relative to the control” value was “significantly larger” and the “dendricity (dendrite length) of melanocytes relative to the control” value is “significantly longer”.
